Earlier results as cited in article PMC6888386, “Identification of Novel 1,3,5-Triphenylbenzene Derivative Compounds as Inhibitors of Hen Lysozyme Amyloid Fibril Formation” (International Journal of Molecular Sciences, 2019).

Test system: HEWL
Set-up: method as in PMID 27597412
Details: HEWL amyloid fibril formation; read-out: IC50 value of a representative bis(indolyl)phenylmethane; cited from earlier work

In the case of bis(indolyl)phenylmethane, the IC50 is listed as 12.3 ± 1 µM.
